Data on 19 compounds can be found in PubChem BioAssay (NCI).

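Results reflect a 48-hour exposure of cells in 96-well plates to compound at five concentrations. The concentration for 50% growth inhibition is given as GI50. Definition used: TGI = concentration required for complete inhibition of growth.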

As usually defined, the TGI is the concentration giving total growth inhibition. What is called GI50 is the concentration that inhibits growth by half.

Test systems include HCT-15 colon; HL-60(TB) leukemia; HT29 colon; IGROV1 ovarian; RXF 393 renal; SF-295 CNS; UACC-257 melanoma; HOP-62 NSCLC; MCF7 breast; MDA-MB-435.
What all share (assay): DTP human tumour cell line panel, 48 h

Take `O=C(O)C(CS)NCc1c2ccccc2nc2ccccc12` (stereo not given): the TGI in the experiment with HCT-15 colon is more than 100 µM; with HL-60(TB) leukemia, 62 µM; with HT29 colon, more than 100 µM; with IGROV1 ovarian it was more than 100 µM; in the experiment on RXF 393 renal, 98.4 µM; in the experiment with SF-295 CNS, more than 100 µM. The TGI in the experiment with UACC-257 melanoma was more than 100 µM.
`COc1ccc(COC2CC(OC)OC(C)C2OC(=O)c2ccccc2)cc1` (stereo not given): the TGI in the experiment with HCT-15 colon is more than 59.5 µM; with HL-60(TB) leukemia, 49.7 µM; in the experiment with HOP-62 NSCLC it was more than 100 µM; in the experiment on HT29 colon, 39.6 µM; with IGROV1 ovarian it was more than 100 µM; in the experiment on RXF 393 renal it was more than 96.6 µM. Besides, the TGI in the experiment on SF-295 CNS and in the experiment on UACC-257 melanoma was more than 100 µM in each case.
As for `CCOC(=O)c1cc2c(n1Cc1cc(OC)c(OC)c(OC)c1)-c1oncc1CCC2`, the GI50 is 186 nM in the experiment on HCT-15 colon; 221 nM in the experiment on HL-60(TB) leukemia; 447 nM in the experiment on HOP-62 NSCLC; 138 nM in the experiment on HT29 colon; 147 nM in the experiment on IGROV1 ovarian; 58.9 nM with MCF7 breast. Moreover, the GI50 in the experiment on RXF 393 renal was 126 nM; with UACC-257 melanoma, 177 nM. Also, the TGI in the experiment with HCT-15 colon was more than 100 µM; with HL-60(TB) leukemia, 0.765 µM; with HOP-62 NSCLC, 37.2 µM; with HT29 colon, 2.67 µM; in the experiment with IGROV1 ovarian it was 5.36 µM; in the experiment with MCF7 breast, more than 66.5 µM. Besides, the TGI in the experiment on RXF 393 renal was more than 100 µM; in the experiment on UACC-257 melanoma it was 28.5 µM.
Take `O=C1/C(=N\O)S(=O)(=O)c2ccccc21`: the TGI in the experiment on HCT-15 colon, in the experiment with HL-60(TB) leukemia, in the experiment on HOP-62 NSCLC, in the experiment with HT29 colon, with IGROV1 ovarian and in the experiment with RXF 393 renal was more than 100 µM in each case. In addition, the TGI in the experiment with SF-295 CNS and with UACC-257 melanoma was more than 100 µM throughout.
On to `CC(=O)[CH-]C(=O)c1ccccc1.CC(=O)[CH-]C(=O)c1ccccc1.CC(=O)[CH-]C(=O)c1ccccc1.[In+3]`, for which the GI50 is 14500 nM in the experiment on HL-60(TB) leukemia; 31900 nM in the experiment with HT29 colon; 91400 nM with IGROV1 ovarian; 48300 nM in the experiment on RXF 393 renal; 24200 nM in the experiment with SF-295 CNS; 46200 nM with UACC-257 melanoma. Further, the TGI is 41.2 µM with HL-60(TB) leukemia; more than 100 µM in the experiment on HT29 colon; more than 100 µM in the experiment on IGROV1 ovarian; more than 100 µM in the experiment with RXF 393 renal; 93.5 µM with SF-295 CNS; more than 100 µM in the experiment on UACC-257 melanoma.
Take `C=C1CC[C@@H]2[C@](C)(COC(C)=O)[C@H](OC(C)=O)CC[C@@]2(C)[C@@H]1CC(Nc1ccc(S(=O)(=O)Nc2ccc(Cl)nn2)cc1)C1=CCOC1=O` (stereo not given in full): the GI50 with HCT-15 colon is 882 nM; in the experiment with HL-60(TB) leukemia, 1320 nM; with HOP-62 NSCLC, 1460 nM; with IGROV1 ovarian it was 2080 nM; in the experiment with MDA-MB-435, 1400 nM; in the experiment on RXF 393 renal, 1770 nM. For the same compound, the results for the GI50 in the experiment with SF-295 CNS and in the experiment on UACC-257 melanoma were 3280 nM and 1670 nM, respectively. The TGI in the experiment with HCT-15 colon stood at 2.3 µM; in the experiment with HL-60(TB) leukemia, 4.44 µM; in the experiment on HOP-62 NSCLC, 2.99 µM; in the experiment on IGROV1 ovarian it was 5 µM; with MDA-MB-435, 3.17 µM; in the experiment on RXF 393 renal it was 3.29 µM. The TGI was determined as 12.6 µM in the experiment with SF-295 CNS and 3.89 µM in the experiment on UACC-257 melanoma.
With `C[C@]12CCC(=O)CC1CCCC2=O` (stereo not given in full), the TGI in the experiment with HCT-15 colon, with HL-60(TB) leukemia, in the experiment with HOP-62 NSCLC, in the experiment on HT29 colon, in the experiment on IGROV1 ovarian and in the experiment on RXF 393 renal was more than 100 µM throughout. For the same compound, the TGI in the experiment with SF-295 CNS and with UACC-257 melanoma was more than 100 µM in each case.
In the case of `O=C(NC(=Nc1ccccc1)SCCSC(=Nc1ccccc1)NC(=O)c1cccs1)c1cccs1`, the total growth inhibition concentration (TGI) was more than 100 µM in the experiment on HCT-15 colon; more than 100 µM in the experiment with HOP-62 NSCLC; more than 100 µM with HT29 colon; more than 100 µM with IGROV1 ovarian; 68.9 µM in the experiment with RXF 393 renal; more than 100 µM in the experiment with SF-295 CNS. Further, the TGI in the experiment with UACC-257 melanoma was more than 100 µM.
Consider `CC1(C)CC2CC(CC(C)(C)C2=O)C1=O`, for which the TGI with HCT-15 colon, in the experiment on HL-60(TB) leukemia, with HOP-62 NSCLC, in the experiment on HT29 colon, in the experiment on IGROV1 ovarian and with RXF 393 renal was more than 100 µM throughout. Further, the TGI in the experiment with SF-295 CNS and in the experiment on UACC-257 melanoma was more than 100 µM throughout.
`COc1cccc(NC(=O)CC(=O)N2N=C(N3c4ccccc4Sc4ccccc43)CC2c2ccccc2)c1` (stereo not given): the TGI with HCT-15 colon, with HOP-62 NSCLC, in the experiment on HT29 colon, in the experiment with IGROV1 ovarian, in the experiment with RXF 393 renal and with SF-295 CNS was more than 100 µM each time. Also, the TGI in the experiment on UACC-257 melanoma was more than 100 µM.
As to `CCOC(=O)/C(O)=C(/C(=O)OC)c1ccc(Cl)cc1`, the TGI with HCT-15 colon, in the experiment with HOP-62 NSCLC, in the experiment with HT29 colon, in the experiment on IGROV1 ovarian, in the experiment with SF-295 CNS and in the experiment on UACC-257 melanoma was more than 100 µM each time.
For the compound `Nc1ncnc2c1c(-c1ccc(Oc3ccccc3)cc1)nn2C[C@@H]1SSC[C@H]1O`, the GI50 in the experiment with HCT-15 colon is 1160 nM; with HL-60(TB) leukemia, 1840 nM; with HOP-62 NSCLC, 797 nM; with HT29 colon it was 732 nM; in the experiment with IGROV1 ovarian it was 1340 nM; with MCF7 breast it was 898 nM. The GI50 in the experiment on RXF 393 renal is 1820 nM; with SF-295 CNS, 2700 nM; in the experiment on UACC-257 melanoma, 1440 nM. Besides, the TGI in the experiment with HCT-15 colon stood at 7.31 µM; with HL-60(TB) leukemia, 6.79 µM; in the experiment with HOP-62 NSCLC, 6.74 µM; in the experiment with HT29 colon, 7.98 µM; in the experiment on IGROV1 ovarian it was 4.2 µM; in the experiment on MCF7 breast, 3.79 µM. In addition, the figures for the TGI with RXF 393 renal, in the experiment with SF-295 CNS and with UACC-257 melanoma were 5.18 µM, 9.25 µM and 7.56 µM, respectively.
With `CN(C)C(=O)c1ccc([N+](=O)[O-])cc1`, the TGI with HCT-15 colon, in the experiment with HL-60(TB) leukemia, in the experiment on HOP-62 NSCLC, in the experiment on HT29 colon, in the experiment on IGROV1 ovarian and with RXF 393 renal was more than 100 µM in each case. Moreover, the TGI in the experiment on SF-295 CNS and with UACC-257 melanoma was more than 100 µM throughout.
Take `Cn1cc(-c2csc(-c3cn(CCCN4CCCCC4)c4ccccc34)n2)c2cccnc21`: the GI50 was 1700 nM in the experiment on HCT-15 colon; 1890 nM with HT29 colon; 1610 nM in the experiment on IGROV1 ovarian; 1650 nM in the experiment with MCF7 breast; 1870 nM in the experiment on MDA-MB-435; 1590 nM with RXF 393 renal. In addition, the GI50 in the experiment with SF-295 CNS is 1710 nM; in the experiment on UACC-257 melanoma, 1960 nM. Also, the total growth inhibition concentration (TGI) in the experiment on HCT-15 colon is 3.2 µM; in the experiment on HT29 colon, 3.62 µM; in the experiment on IGROV1 ovarian, 3.35 µM; with MCF7 breast, 3.29 µM; in the experiment with MDA-MB-435 it was 3.47 µM; with RXF 393 renal, 3.14 µM. Further, the figures for the TGI in the experiment on SF-295 CNS and in the experiment on UACC-257 melanoma were 3.18 µM and 3.65 µM, respectively.
With `CNC(=O)OCc1c2ccncc2c(C)c2c1[nH]c1ccc(OC)cc12`, the TGI in the experiment on HCT-15 colon is more than 100 µM; with HL-60(TB) leukemia it was 0.623 µM; with HOP-62 NSCLC, 1.07 µM; with HT29 colon, more than 100 µM; in the experiment on IGROV1 ovarian it was 4.56 µM; with SF-295 CNS, more than 100 µM.
For the compound `CCCN(CCC)C(=O)C(=O)c1c(N)[nH]n(-c2ccccc2)c1=O`, the TGI in the experiment with HCT-15 colon, in the experiment with HL-60(TB) leukemia, in the experiment on HT29 colon, in the experiment with IGROV1 ovarian, in the experiment with SF-295 CNS and in the experiment on UACC-257 melanoma was more than 100 µM in each case.
Regarding `CCN1C(=O)N(CC)C2C1NN=c1s/c(=C\c3ccccn3)c(=O)n12` (stereo not given), the GI50 in the experiment with HCT-15 colon is 558 nM; in the experiment with HL-60(TB) leukemia it was 487 nM; in the experiment with HOP-62 NSCLC, 2910 nM; with HT29 colon, 681 nM; in the experiment on IGROV1 ovarian, 2020 nM; in the experiment on MCF7 breast, 468 nM. Also, the GI50 was 1660 nM in the experiment on RXF 393 renal, 2720 nM with SF-295 CNS and more than 100000 nM in the experiment on UACC-257 melanoma. The TGI in the experiment on HCT-15 colon was more than 100 µM; with HL-60(TB) leukemia, 3.42 µM; in the experiment with HOP-62 NSCLC, more than 100 µM; in the experiment on HT29 colon, more than 100 µM; in the experiment with IGROV1 ovarian, more than 100 µM; in the experiment with MCF7 breast, more than 100 µM. Also, the TGI in the experiment on RXF 393 renal was 5.86 µM; with SF-295 CNS, more than 100 µM; in the experiment on UACC-257 melanoma, more than 100 µM.
On to `O=C(N/C(=C\c1ccc(/C=C(\NC(=O)c2ccccc2)c2nc3ccccc3[nH]2)cc1)c1nc2ccccc2[nH]1)c1ccccc1`, for which the TGI with HCT-15 colon, in the experiment with HOP-62 NSCLC, in the experiment on HT29 colon, with IGROV1 ovarian, with RXF 393 renal and in the experiment with SF-295 CNS was more than 100 µM each time. Moreover, in the experiment on UACC-257 melanoma, the TGI was more than 100 µM.
For `O=C(O)c1nc(-c2ccc(Cl)c(Cl)c2)nc2ccc(Cl)cc12`, the total growth inhibition concentration (TGI) is more than 100 µM with HCT-15 colon; 54.2 µM in the experiment with HL-60(TB) leukemia; more than 100 µM in the experiment with HOP-62 NSCLC; more than 100 µM with HT29 colon; more than 100 µM with IGROV1 ovarian; 69.4 µM with RXF 393 renal. The TGI in the experiment with SF-295 CNS and in the experiment with UACC-257 melanoma was more than 100 µM throughout.
